Legend:
Type in all cases: biochemical
[1] = molecular target: T1, FL EGFR (Homo sapiens, UniProt P00533); experiment: EGFR kinase assay (ADP-Glo)
T1 construct: kinase domain of EGFR (amino acids 695-1210); purchased Promega V3831
Experimental: A peptide containing the kinase domain of EGFR (amino acids 695-1210) was used to assess the inhibitory potency of the inhibitors. The ADP-Glo kinase assay (Promega V9101), and the EGFR kinase enzyme (Promega V3831) were used according to the supplier's instructions. Briefly, […] reactions were assembled in wells of a 384 well plate as follows: 5 μL of the kinase reaction, 5 μL of the ADP depletion reagent, and 10 μL of the luciferase reagent. For the kinase reaction: 1 μL of the inhibitor (dissolved in DMSO) was mixed with 2 μL EGFR peptide ([…]), 1 μL of a poly Glu4Tyr1 peptide (0.2 μg/μL), 1 μL reaction buffer, and 1 μL of ATP (final concentration of 5 μM). The kinase reaction was incubated at room temperature for 1 hour. 5 μL of the ATP depletion/kinase terminating reagent was mixed into each well and incubated at room temperature for 40 minutes. 10 μL of the kinase detection reagent containing luciferase was mixed into each well and incubated at room temperature for 30 minutes for bioluminescent detection of ADP produced from the kinase reaction in step 1. Bioluminescent signal was detected in a Tecan Safire^2 with a black plug covering the excitation filter, and an empty emission filter. The integration time was increased to […] to detect enough luminescence per reading.

[2] = molecular target: T2, BAK (Mus musculus, UniProt O08734); experiment: Permeabilization of isolated mitochondria, Smac-mCherry release (BIM activated BAK); conditions: concentrations up to 60 uM
T2 construct: endogenous in cells; host or cells: heavy membranes (mitochondria) of BAX-/- baby mouse kidney cells expressing Smac-mCherry
T2 sequence (O08734 2-209 limits assumed): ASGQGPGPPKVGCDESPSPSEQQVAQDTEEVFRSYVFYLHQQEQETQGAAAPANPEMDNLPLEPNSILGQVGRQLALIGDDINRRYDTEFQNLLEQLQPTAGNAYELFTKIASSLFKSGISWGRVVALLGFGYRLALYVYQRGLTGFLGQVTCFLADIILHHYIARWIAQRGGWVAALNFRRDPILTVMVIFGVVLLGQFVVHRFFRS

[3] = molecular target: BAX (Homo sapiens, UniProt Q07812); experiment: Liposome membrane permeabilization / dye release assay (cBID activated BAX); design: made in house; host or cells: Escherichia coli BL21-AI; conditions: 20 nM cBID and 100 nM BAX
Experimental: The preparation of liposomes and dye-release assays were as previously described (Kale et al., 2014). The composition of liposomes, in molar %, to make a 1 mg/mL lipid film are as follows: 48% phosphatidylcholine, 28% phosphatidylethanolamine, 10% phosphatidylinositol, 10% dioleoyl phosphatidylserine, and 4% tetraoleoyl cardiolipin. Each lipid (dissolved in chloroform) was mixed in a glass test tube. Using a steady stream of nitrogen pointed inside the test tube, the tube is rotated to create a film of lipids on the glass. The tube is filled with nitrogen and covered with parafilm. The dried lipid film is then stored at −20° C. until needed. […]
The choice of ANTS/DPX or Terbium:DPA liposomes for dye release assays was dictated by the properties of those compounds being assayed for BAX inhibitory activity, that affected the fluorescence of ANTS or Terbium.
For ANTS/DPX dye release assays: ANTS (fluorophore; excitation 355 nm, emission 520 nm) and DPX (collisional quencher) are encapsulated in reconstituted liposomes. When the membrane is permeabilized, ANTS and DPX diffuse to the outside of the liposomes, decreasing the effective concentration DPX and therefore quenching by […] is decreased and ANTS fluorescence increases. […] The plate was then read a third time to assess the fluorescence of ANTS upon full dissociation of liposomes in each well (F100). […]

[4] = molecular target: T3, V83W L120W BAX (Homo sapiens, UniProt Q07812, L120W/V83W); experiment: ANTS/DPX liposome permeabilization with BAX mutant; conditions: 100 nM V83W L120W BAX, 20 nM cBID, 20 uM compound
T3 construct: made in house
Experimental: For ANTS/DPX dye release assays: ANTS (fluorophore; excitation 355 nm, emission 520 nm) and DPX (collisional quencher) are encapsulated in reconstituted liposomes. When the membrane is permeabilized, ANTS and DPX diffuse to the outside of the liposomes, decreasing the effective concentration DPX and therefore quenching by […] is decreased and ANTS fluorescence increases. ANTS/DPX liposomes (8 uL of mg/mL liposome preparation per 100 μL of reaction) were added to individual wells of multi-well plates (100 μL final volume for 96 well plates or (30 μL total volume for 384 well plates) in assay buffer (10 mM HEPES pH 7.2, 200 mM KCl, and 5 mM MgCl2). The background fluorescence of the liposomes and the compound dissolved in DMSO was measured for 10 minutes to ensure fluorescent signal stabilized (F0). Unless explicitly stated, 20 nM cBID and 100 nM BAX were added sequentially to each well and mixed thoroughly. The fluorescence intensity of ANTS was measured every minute for 2-3 hours until the signal stabilizes at a plateau (F). […] The plate was then read a third time to assess the fluorescence of ANTS upon full dissociation of liposomes in each well (F100). The percentage of dye release from the liposomes due to the action of cBID and BAX is calculated as: […]

T1 sequence (P00533 695-1210): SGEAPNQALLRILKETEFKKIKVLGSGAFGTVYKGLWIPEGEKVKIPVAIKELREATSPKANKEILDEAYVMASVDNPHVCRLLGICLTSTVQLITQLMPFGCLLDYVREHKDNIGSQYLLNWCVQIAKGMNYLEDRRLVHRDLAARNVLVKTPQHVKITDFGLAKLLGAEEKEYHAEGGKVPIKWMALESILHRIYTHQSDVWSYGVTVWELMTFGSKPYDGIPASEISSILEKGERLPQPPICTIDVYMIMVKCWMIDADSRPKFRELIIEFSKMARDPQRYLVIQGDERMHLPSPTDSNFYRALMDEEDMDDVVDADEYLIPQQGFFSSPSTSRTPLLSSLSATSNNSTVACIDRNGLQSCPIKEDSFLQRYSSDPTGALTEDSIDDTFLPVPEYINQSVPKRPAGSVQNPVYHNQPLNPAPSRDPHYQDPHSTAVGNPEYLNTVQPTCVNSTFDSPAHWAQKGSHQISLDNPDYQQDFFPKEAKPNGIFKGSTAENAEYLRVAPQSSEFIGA
Sequence of BAX (Q07812 whole entry): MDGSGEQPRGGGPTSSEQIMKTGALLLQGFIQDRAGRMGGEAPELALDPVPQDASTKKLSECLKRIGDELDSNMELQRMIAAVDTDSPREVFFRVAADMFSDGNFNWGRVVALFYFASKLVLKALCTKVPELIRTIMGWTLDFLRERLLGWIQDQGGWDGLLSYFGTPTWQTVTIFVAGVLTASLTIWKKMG
T3 sequence (Q07812 whole entry V83W/L120W): as the sequence (Q07812 whole entry) above, with V83W, L120W counted along it

SMILES	kinase inhibitory activity ([1]; at or below 10 uM)	inhibition of BAK mediated permeabilization of mitochondria [2]	BAX inhibitory activity, cBID activated BAX mediated liposome permeabilization [3]	Hill Slope ([1]; FL EGFR)	inhibition of mutant BAX [4]
COc1cc2ccnc(Nc3ccc(F)c(Cl)c3)c2cc1NC(=O)CCCN1CCCCC1 [Compound I-1, N-(1-((3-chloro-4-fluorophenyl)amino)-6-methoxyisoquinolin-7-yl)-4-(piperidin-1-yl)butanamide]	no appreciable kinase inhibitory activity	equally effective inhibitors	retained BAX inhibitory activity equivalent to comparative compound dacomitinib		
COc1cc2ncnc(Nc3ccc(F)c(Cl)c3)c2cc1NC(=O)/C=C/CN1CCCCC1 [Dacomitinib, reference compound]		equally effective inhibitors	identified in a screen for compounds that inhibit	−1.3	reduced inhibition

From patent publication US20250154140A1 (Sunnybrook Research Institute, priority 2022, published 2025)
